Assay results reported in patent publication US12521379B2, “Use of FK506 for the treatment of pulmonary arterial hypertension” (The Board of Trustees of the Leland Stanford Junior …, priority 2011, dated 2026).

Tests used:
[1] = system: mice with a conditional deletion in BMPRII in ECs (BMPRII-SCL-CreERT); experiment: Prevention of PAH in mice with conditional deletion of BMPRII in ECs, 3 weeks of hypoxia; format: in vivo, mouse; conditions: 0.05 mg/kg/d, 3-week preventive treatment, 3 weeks of hypoxia, n=5
Experimental: (§1) 3600 FDA approved drugs and bioactive compounds were screened for their ability to activate BMP signaling, using a C2C12 mouse myoblast cell line stably transfected with a reporter plasmid expressing a BMP response element (BRE) from the Id1 promoter fused to the luciferase-gene (BRE-luc). Whether the best qHTS-BMPRII activator can induce Smad phosphorylation (phospho), Id1 expression and promote PAEC survival and tube formation was determined using BMP4 as a positive control. Whether the qHTS-BMPRII-activator would prevent PAH in mice with a conditional deletion in BMPRII in ECs (BMPRII-SCL-CreERT) that develop exaggerated PAH after 3 weeks of hypoxia (10% O2) was determined. In order to assess whether the BMPRII activator could also reverse PAH, we used 2 models of severe experimental PH in rats: 1. Monocrotaline induced pulmonary hypertension with development of severe medial hypertrophy of the pulmonary arteries 3 weeks after injection. 2. SUGEN (VEGF-Receptor blocker) and 3-week chronic hypoxia induced pulmonary hypertension with development of neointima formation in pulmonary arteries 8 weeks after initiation of the stimulus. Both groups were treated with FK-506 for 3 weeks via sc osmotic pump (0.05 mg/kg/d) after PAH and remodeling of the pulmonary arteries was established. The serum level of FK-506 in mice and rats was aimed to be 0.2 ng/ml.

[2] = as above; format: in vivo, mouse; conditions: mouse, serum, 0.05 mg/kg/day; mice, 0.05 mg/kg/d; read-out: serum levels
Experimental: as §1

[3] = system: WBC count, nuclear NFATc2; experiment: Immunosuppressive effect at low dose: WBC count and nuclear NFATc2; format: in vivo; conditions: low dose of 0.2 ng/ml
[4] = system: monocrotaline induced pulmonary hypertension; experiment: Reversal of monocrotaline induced pulmonary hypertension in rats; format: in vivo, rat
Experimental: as §1

[5] = system: SUGEN and chronic hypoxia induced pulmonary hypertension; experiment: Reversal of SUGEN and 3-week chronic hypoxia induced pulmonary hypertension in rats; format: in vivo, rat; conditions: n=4
Experimental: as §1

PAECs [6] = experiment: Tube formation in an angiogenesis assay; format: cell-based; conditions: n=3, p<0.01
Experimental: as §1

PAECs [7] = experiment: PAEC survival; format: cell-based; conditions: n=5, p<0.001
Experimental: as §1

[8] = system: PAECs harvested from IPAH patients; experiment: p-Smad 1/5/8 and Id1 expression in PAECs harvested from IPAH patients; format: cell-based, human; conditions: PAECs from six different IPAH patients at the time of transplant
Experimental: as §1

[9] = 3-week sc treatment at established PAH

**Q.** What does the source list for C=CC[C@@H]1/C=C(\C)C[C@H](C)C[C@H](OC)[C@H]2O[C@@](O)(C(=O)C(=O)N3CCCC[C@H]3C(=O)O[C@H](/C(C)=C/[C@@H]3CC[C@@H](O)[C@H](OC)C3)[C@H](C)[C@@H](O)CC1=O)[C@H](C)C[C@@H]2OC [FK-506]?
**A.** RV systolic pressure [1]: 21±2.3 mmHg; RVH (right ventricular hypertrophy) [1]: 26.9±4.5; concentration at 3 weeks [2]: 0.2 ng/mL; immunosuppressive effect of decreased nuclear NFATc2 [3]: nor was an immunosuppressive effect of decreased nuclear NFATc2 measured; total or differential WBC count [3]: no effect; survival ([4]; after 3-week treatment started 3 weeks after monocrotaline 60 mg s.c.): 57%; RVSP ([4]; surviving rats after 3-week treatment, n=14): 39.5±4.7 mmHg; RVH [5, 9]: 0.34±0.02; RVSP [5, 9]: 39.5±0.6 mmHg; Neointima formation in small pulmonary arteries per total vessel number ([5]; alveolar wall and alveolar duct vessels): 16.2±5.8%

B1: BMP4: bone morphogenetic protein 4, used as a positive control (protein, UniProt P12644 293-408, looked up)
Bone morphogenetic protein 4: SPKHHSQRARKKNKNCRRHSLYVDFSDVGWNDWIVAPPGYQAFYCHGDCPFPLADHLNSTNHAIVQTLVNSVNSSIPKACCVPTELSAISMLYLDEYDKVVLKNYQEMVVEGCGCR
**Q.** Which tube formation (PAECs [6]) does the source give for B1 here?
**A.** Its tube formation is “induced tube formation”.

**Q.** What about the “survival of PAECs” value (PAECs [7]) of the same molecule?
**A.** Its value is “improved survival”.

**Q.** And the Id1 expression [8]?
**A.** Its Id1 expression is 3/6 patients that did not respond.

**Q.** And the “p-Smad 1/5/8” value [8]?
**A.** The value was 3/6 patients that did not respond.
